From PubChem BioAssay (NCI) come the findings set out here.

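Results reflect a 48-hour exposure of cells in 96-well plates to compound at five concentrations. At the GI50, growth is halved. TGI marks complete inhibition of growth.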

Common to all, as to assay: NCI-60 cell line screen, 48 h
Experiment [1] has as its system PC-3 prostate.
For experiment [2], the system named is NCI/ADR-RES ovarian.
In experiment [3] the test system is MDA-MB-231 breast.
Experiment [4] has as its system HL-60(TB) leukemia.
Experiment [5] deals with MDA-N.
For experiment [6], the system named is SNB-75 CNS.
In experiment [7] the test system is KM12 colon.
Experiment [8] concerns SK-MEL-5 melanoma.
The test system of experiment [9] is A549 NSCLC.
Experiment [10] has as its system EKVX NSCLC.
For experiment [11], the system named is DU-145 prostate.

With `OC1CCN2Cc3ccccc3N=C12` (stereo not given), the TGI in [1], in experiment [2], in experiment [3], in experiment [4], in experiment [5] and in experiment [6] was > 100 µM throughout. For the same compound, the TGI in experiment [7], in [8], in [9], in experiment [10] and in experiment [11] was > 100 µM in each case.
On to `CC1OC1C(=O)P(=O)(O)O` (stereo not given), for which the TGI in [1], in [2], in [3], in experiment [4], in experiment [5] and in experiment [6] was > 100 µM each time. The TGI in [7], in [8], in experiment [9], in experiment [10] and in [11] was > 100 µM in each case.
Regarding `COc1ccccc1C1C(C#N)=C(N)SC(N)=C1C#N`, the GI50 was 43.9 µM in experiment [2]; 21.6 µM in experiment [3]; 50.3 µM in experiment [4]; 39.2 µM in experiment [6]; 37.8 µM in experiment [7]; 90.5 µM in experiment [8]. Further, the GI50 in [9] is > 100 µM; in experiment [10], > 100 µM; in experiment [11], 41.3 µM. Further, the TGI in experiment [2] is > 100 µM; in experiment [3] it was 60.7 µM; in [4], > 100 µM; in experiment [6], > 100 µM; in experiment [7], > 100 µM; in experiment [8] it was > 100 µM. For the same compound, the TGI in experiment [9], in experiment [10] and in [11] was > 100 µM throughout.
Regarding `NCC(=O)N[C@H]1c2ccsc2/C(=N/O)[C@H]1O`, the TGI in experiment [1], in [2], in experiment [3], in experiment [4], in [5] and in [8] was > 100 µM throughout. In addition, the TGI in [9], in [10] and in [11] was > 100 µM throughout.
In the case of `Cc1ccccc1NC(=O)C(=O)C(C1OC(=O)c2ccccc21)[N+](=O)[O-]` (stereo not given), the TGI in [4], in [6], in experiment [7], in experiment [8], in experiment [9] and in [10] was > 100 µM throughout.
